Laboratory results: the NIST ThermoML archive (doi:10.1016/j.jct.2011.07.003)
Where “and” joins values, the source holds several entries; their conditions need not be identical. Equal entries are not always repeated. Numbers after ± are expanded uncertainties.

Details: Calculated from knudsen effusion weight loss

| Compound | vapor or sublimation pressure (321.79 K, Crystal) | vapor or sublimation pressure (328.88 K, Crystal) | vapor or sublimation pressure (337.2 K, Crystal) | vapor or sublimation pressure (345.77 K, Crystal) | vapor or sublimation pressure (352.86 K, Crystal) | vapor or sublimation pressure (360.64 K, Crystal) | vapor or sublimation pressure (295.73 K, Crystal 2) | vapor or sublimation pressure (302.13 K, Crystal 2) | vapor or sublimation pressure (307.66 K, Crystal 2) | vapor or sublimation pressure (313.1 K, Crystal 2) | vapor or sublimation pressure (318.47 K, Crystal 2) | vapor or sublimation pressure (323 K, Crystal 2) | vapor or sublimation pressure (328.2 K, Crystal 2) | vapor or sublimation pressure (332.95 K, Crystal 2) |
| --- | --- | --- | --- | --- | --- | --- | --- | --- | --- | --- | --- | --- | --- | --- |
| c1ccc2cc3ccccc3cc2c1 [anthracene] | 1.7e-05 ± 1e-06 kPa and 1.8e-05 ± 1e-06 kPa and 1.9e-05 ± 1e-06 kPa | 3.9e-05 ± 2e-06 kPa and 3.7e-05 ± 2e-06 kPa and 4e-05 ± 2e-06 kPa | 9.3e-05 ± 5e-06 kPa [middle of 7 runs] | 0.000236 ± 1.2e-05 kPa [middle of 6 runs] | 0.000473 ± 2.4e-05 kPa [middle of 6 runs] | 0.000988 ± 4.9e-05 kPa [middle of 5 runs] |  |  |  |  |  |  |  |  |
| c1ccc2c(c1)ccc1ccccc12 [phenanthrene] |  |  |  |  |  |  | 1.4e-05 ± 1e-06 kPa and 1.5e-05 ± 1e-06 kPa | 3.2e-05 ± 2e-06 kPa and 3.1e-05 ± 2e-06 kPa | 6.1e-05 ± 3e-06 kPa and 6.4e-05 ± 3e-06 kPa and 6.2e-05 ± 3e-06 kPa | 0.000118 ± 6e-06 kPa and 0.000119 ± 6e-06 kPa | 0.000208 ± 1e-05 kPa [middle of 6 runs] | 0.000341 ± 1.7e-05 kPa [middle of 5 runs] | 0.00059 ± 3e-05 kPa [middle of 6 runs] | 0.000959 ± 4.8e-05 kPa [middle of 6 runs] |
